Results published in PubChem BioAssay (NCI).
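Grown in 96-well plates, cells were treated for 48 hours with each compound at five concentrations. Insufficient inhibition: endpoint recorded as highest concentration tested. GI50 = concentration required for 50% inhibition of growth. At the TGI there is no net growth.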

Key:
Test in all cases: DTP human tumour cell line panel, 48 h
[1] = system: CAKI-1 renal
[2] = system: UACC-257 melanoma
[3] = system: SNB-19 CNS
[4] = system: DMS 273 small cell lung
[5] = system: SF-295 CNS
[6] = system: OVCAR-8 ovarian
[7] = system: EKVX NSCLC
[8] = system: HCT-116 colon
[9] = system: M14 melanoma
[10] = system: DMS 114 small cell lung
[11] = system: NCI-H522 lung
[12] = system: NCI-H23 lung
[13] = system: SK-OV-3 ovarian
[14] = system: HL-60(TB) leukemia
[15] = system: TK-10 renal
[16] = system: SK-MEL-2 melanoma
[17] = system: A549 NSCLC
[18] = system: HCT-15 colon
[19] = system: RPMI-8226 leukemia
[20] = system: LXFL 529 NSCLC
[21] = system: LOX IMVI melanoma
[22] = system: SK-MEL-5 melanoma
[23] = system: KM20L2 colon
[24] = system: CCRF-CEM leukemia
[25] = system: 786-0 renal
[26] = system: HT29 colon
[27] = system: DLD-1 colon
[28] = system: NCI-H460 lung
[29] = system: COLO 205 colon
[30] = system: U251 CNS
[31] = system: KM12 colon
[32] = system: NCI-H226 lung
[33] = system: MOLT-4 leukemia
[34] = system: HOP-62 NSCLC
[35] = system: UACC-62 melanoma
[36] = system: SNB-78 CNS
[37] = system: OVCAR-4 ovarian
[38] = system: SK-MEL-28 melanoma
[39] = system: SNB-75 CNS
[40] = system: OVCAR-3 ovarian
[41] = system: MALME-3M melanoma
[42] = system: SW-620 colon
[43] = system: OVCAR-5 ovarian
[44] = system: SN12C renal
[45] = system: A498 renal
[46] = system: IGROV1 ovarian
[47] = system: ACHN renal
[48] = system: SF-268 CNS
[49] = system: K-562 leukemia
[50] = system: UO-31 renal
[51] = system: M19-MEL melanoma
[52] = system: HCC-2998 colon
[53] = system: RXF 393 renal
[54] = system: HOP-92 NSCLC
[55] = system: SF-539 CNS
[56] = system: SR leukemia
[57] = system: HOP-18 NSCLC
[58] = system: T-47D breast
[59] = system: MDA-MB-435
[60] = system: MCF7 breast
[61] = system: DU-145 prostate
[62] = system: MDA-N
[63] = system: HS 578T breast
[64] = system: MDA-MB-231 breast
[65] = system: NCI/ADR-RES ovarian
[66] = system: PC-3 prostate
[67] = system: BT-549 breast

CNc1nc(N)cc(=O)[nH]1
TGI [1]: > 100 µM
TGI [2]: > 100 µM
TGI [3]: > 100 µM
TGI [4]: > 100 µM
TGI [5]: > 100 µM
TGI [6]: > 100 µM
TGI [7]: > 100 µM
TGI [8]: > 100 µM
TGI [9]: > 100 µM
TGI [10]: > 100 µM
TGI [11]: > 100 µM
TGI [12]: > 100 µM
TGI [13]: > 100 µM
TGI [14]: > 100 µM
TGI [15]: > 100 µM
TGI [16]: > 100 µM
TGI [17]: > 100 µM
TGI [18]: > 100 µM
TGI [19]: > 100 µM
TGI [20]: > 100 µM
TGI [21]: > 100 µM
TGI [22]: > 100 µM
TGI [23]: > 100 µM
TGI [24]: > 100 µM
TGI [25]: > 100 µM
TGI [26]: > 100 µM
TGI [27]: > 100 µM
TGI [28]: > 100 µM
TGI [29]: > 100 µM
TGI [30]: > 100 µM
TGI [31]: > 100 µM
TGI [32]: > 100 µM
TGI [33]: > 100 µM
TGI [34]: > 100 µM
TGI [35]: > 100 µM
TGI [36]: > 100 µM
TGI [37]: > 100 µM
TGI [38]: > 100 µM
TGI [39]: > 100 µM
TGI [40]: > 100 µM
TGI [41]: > 100 µM
TGI [42]: > 100 µM
TGI [43]: > 100 µM
TGI [44]: > 100 µM
TGI [45]: > 100 µM
TGI [46]: > 100 µM
TGI [47]: > 100 µM
TGI [48]: > 100 µM
TGI [49]: > 100 µM
TGI [50]: > 100 µM
TGI [51]: > 100 µM
TGI [52]: > 100 µM

CC(C)CC(=O)[O-].CC(C)CC(=O)[O-].N.N.N.N.[Co+3].[O-][Cl+3]([O-])([O-])O.[O-][Cl+3]([O-])([O-])[O-]
GI50 [2]: > 100 µM
TGI [2]: > 100 µM
GI50 [3]: > 100 µM
TGI [3]: > 100 µM
GI50 [5]: > 100 µM
TGI [5]: > 100 µM
GI50 [6]: > 100 µM
TGI [6]: > 100 µM
GI50 [7]: > 100 µM
TGI [7]: > 100 µM
GI50 [53]: > 100 µM
TGI [53]: > 100 µM
GI50 [9]: > 100 µM
TGI [9]: > 100 µM
GI50 [54]: > 100 µM
TGI [54]: > 100 µM
GI50 [12]: > 100 µM
TGI [12]: > 100 µM
GI50 [13]: > 100 µM
TGI [13]: > 100 µM
GI50 [14]: > 100 µM
TGI [14]: > 100 µM
GI50 [15]: > 100 µM
TGI [15]: > 100 µM
GI50 [16]: > 100 µM
TGI [16]: > 100 µM
GI50 [17]: > 100 µM
TGI [17]: > 100 µM
GI50 [18]: > 100 µM
TGI [18]: > 100 µM
GI50 [19]: > 100 µM
TGI [19]: > 100 µM
GI50 [20]: > 100 µM
TGI [20]: > 100 µM
GI50 [21]: > 100 µM
TGI [21]: > 100 µM
GI50 [24]: > 100 µM
TGI [24]: > 100 µM
GI50 [25]: > 100 µM
TGI [25]: > 100 µM
GI50 [27]: > 100 µM
TGI [27]: > 100 µM
GI50 [55]: > 100 µM
TGI [55]: > 100 µM
GI50 [29]: > 100 µM
TGI [29]: > 100 µM
GI50 [31]: > 100 µM
TGI [31]: > 100 µM
GI50 [32]: > 100 µM
TGI [32]: > 100 µM
GI50 [33]: > 100 µM
TGI [33]: > 100 µM
GI50 [35]: > 100 µM
TGI [35]: > 100 µM
GI50 [36]: > 100 µM
TGI [36]: > 100 µM
GI50 [38]: > 100 µM
TGI [38]: > 100 µM
GI50 [39]: > 100 µM
TGI [39]: > 100 µM
GI50 [41]: > 100 µM
TGI [41]: > 100 µM
GI50 [42]: > 100 µM
TGI [42]: > 100 µM
GI50 [43]: > 100 µM
TGI [43]: > 100 µM
GI50 [56]: > 100 µM
TGI [56]: > 100 µM
GI50 [44]: > 100 µM
TGI [44]: > 100 µM
GI50 [46]: > 100 µM
TGI [46]: > 100 µM
GI50 [57]: > 100 µM
TGI [57]: > 100 µM
GI50 [47]: > 100 µM
TGI [47]: > 100 µM
GI50 [48]: > 100 µM
TGI [48]: > 100 µM
GI50 [49]: > 100 µM
TGI [49]: > 100 µM
GI50 [50]: > 100 µM
TGI [50]: > 100 µM
GI50 [52]: > 100 µM
TGI [52]: > 100 µM

O=C1C=C(Nc2cccnc2)c2ccccc2C1=O
TGI [1]: 18.6 µM
TGI [2]: 4.48 µM
TGI [3]: 24.8 µM
TGI [4]: > 39.6 µM
TGI [58]: 43.8 µM
TGI [5]: 9.09 µM
TGI [59]: 1.39 µM
TGI [60]: 8.2 µM
TGI [6]: 23.1 µM
TGI [61]: 14.1 µM
TGI [62]: 1.42 µM
TGI [7]: 26.7 µM
TGI [53]: 38 µM
TGI [8]: 25.6 µM
TGI [9]: 6.76 µM
TGI [10]: 5.01 µM
TGI [54]: 27.1 µM
TGI [11]: 15.5 µM
TGI [12]: 9.41 µM
TGI [13]: 22.1 µM
TGI [14]: 23 µM
TGI [15]: 34.5 µM
TGI [16]: 25.1 µM
TGI [63]: 8.33 µM
TGI [17]: 13.3 µM
TGI [64]: 20.4 µM
TGI [18]: 29.3 µM
TGI [19]: 51.3 µM
TGI [20]: > 51.3 µM
TGI [21]: 9.9 µM
TGI [22]: 2.58 µM
TGI [23]: > 62.3 µM
TGI [24]: 51.9 µM
TGI [25]: 23.8 µM
TGI [26]: 33.7 µM
TGI [27]: 20 µM
TGI [28]: 12.5 µM
TGI [55]: 8.41 µM
TGI [29]: 38.6 µM
TGI [30]: 24.4 µM
TGI [31]: 23.4 µM
TGI [32]: 38.1 µM
TGI [33]: 46.6 µM
TGI [65]: 23.9 µM
TGI [34]: 12.9 µM
TGI [35]: 3.31 µM
TGI [36]: 38 µM
TGI [37]: 19.9 µM
TGI [38]: 13.5 µM
TGI [39]: 5.45 µM
TGI [40]: 11.6 µM
TGI [66]: 52.4 µM
TGI [41]: 5.35 µM
TGI [42]: 18.7 µM
TGI [43]: 18.4 µM
TGI [56]: 37 µM
TGI [44]: 21.5 µM
TGI [45]: 22.3 µM
TGI [46]: 18.7 µM
TGI [57]: 22 µM
TGI [47]: 20.5 µM
TGI [48]: 20.9 µM
TGI [49]: 22.7 µM
TGI [67]: 3.83 µM
TGI [50]: 24.2 µM
TGI [52]: 30.5 µM

CC1(C=O)C(=O)CCC2(C)C3CC(=O)OC3CCC12 (centres undefined)
TGI [1]: > 100 µM
TGI [2]: > 100 µM
TGI [3]: > 100 µM
TGI [4]: > 100 µM
TGI [5]: > 100 µM
TGI [6]: > 100 µM
TGI [7]: > 100 µM
TGI [53]: > 100 µM
TGI [9]: > 100 µM
TGI [10]: > 100 µM
TGI [54]: > 100 µM
TGI [11]: > 100 µM
TGI [12]: > 100 µM
TGI [13]: > 100 µM
TGI [14]: > 100 µM
TGI [15]: > 100 µM
TGI [16]: > 100 µM
TGI [17]: > 100 µM
TGI [18]: > 100 µM
TGI [19]: > 100 µM
TGI [20]: > 100 µM
TGI [21]: > 100 µM
TGI [22]: > 100 µM
TGI [23]: > 100 µM
TGI [24]: > 100 µM
TGI [25]: > 100 µM
TGI [26]: > 100 µM
TGI [27]: > 100 µM
TGI [28]: > 100 µM
TGI [55]: > 100 µM
TGI [29]: > 100 µM
TGI [30]: > 100 µM
TGI [31]: > 100 µM
TGI [33]: > 100 µM
TGI [34]: > 100 µM
TGI [35]: > 100 µM
TGI [37]: > 100 µM
TGI [38]: > 100 µM
TGI [39]: > 100 µM
TGI [40]: > 100 µM
TGI [41]: > 100 µM
TGI [42]: > 100 µM
TGI [43]: > 100 µM
TGI [44]: > 100 µM
TGI [46]: > 100 µM
TGI [57]: > 100 µM
TGI [47]: > 100 µM
TGI [48]: > 100 µM
TGI [49]: > 100 µM
TGI [50]: > 100 µM
TGI [51]: > 100 µM
TGI [52]: > 100 µM
